Reference: patent US20220396565A1 (Hoffmann-La Roche Inc., priority 2020, published 2022)
Counter-ions that a name gives are not always drawn.

Test system: Acinetobacter baumannii ATCC17961
Test: Antimicrobial susceptibility testing: 90% growth inhibitory concentration (IC90) determination, Iso-Sensitest broth
Format: cell-based
Conditions: Acinetobacter baumannii, ATCC17961, 90% growth inhibitory concentration, Acinetobacter baumannii ATCC17961, Iso-Sensitest broth; read-out: ATCC 17961 IC90
Experimental: The in vitro antimicrobial activity of the compounds was determined according to the following procedure:
The assay used a 10-points Iso-Sensitest broth medium to measure quantitatively the in vitro activity of the compounds against Acinetobacter baumannii ATCC17978 or ATCC17961.
Stock compounds in DMSO were serially twofold diluted (e.g. range from 10 to 0.02 μM final concentration) in 384 wells microtiter plates and inoculated with 49 μl the bacterial suspension in Iso-Sensitest medium to have a final cell concentration of ˜5×10^(5) CFU/ml in a final volume/well of 50 ul/well. Microtiter plates were incubated at 35±2° C.
Bacterial cell growth was determined with the measurement of optical density at k=600 nm each 20 minutes over a time course of 16 h. Growth inhibition was calculated during the logarithmic growth of the bacterial cells with determination of the concentration inhibiting 50% (IC50) and 90% (IC90) of the growth.
Table 1 provides the 90% growth inhibitory concentrations (IC90) in micromoles per liter of the compounds of present invention obtained against the strain Acinetobacter baumannii ATCC17978 or ATCC17961.

Compound | IC90
COc1ccc(-c2cnc(C(=O)Nc3ccc(C(=O)N4CCC(C(=O)N5CC(CCN)C5)CC4)c(Cl)c3)n2C)c(F)c1F [Example 40, N-[4-[4-[3-(2-aminoethyl)azetidine-1-carbonyl]piperidine-1-carbonyl]-3-chloro-phenyl]-5-(2,3-difluoro-4-methoxy-phenyl)-1-methyl-imidazole-2-carboxamide formate] | 70 nM
COc1ccc(-c2cnc(C(=O)Nc3ccc(C(=O)N4CC5(CC(C(=O)N6CCN[C@@H](CO)C6)C5)C4)c(Cl)c3)n2C)c(F)c1F [Example 41, N-[3-chloro-4-[6-[(3R)-3-(hydroxymethyl)piperazine-1-carbonyl]-2-azaspiro[3,3]heptane-2-carbonyl]phenyl]-5-(2,3-difluoro-4-methoxy-phenyl)-1-methyl-imidazole-2-carboxamide] | 140 nM
COc1ccc(-c2cnc(C(=O)Nc3ccc(C(=O)N4CC5(CNC5)C4)c(Cl)c3)n2C)c(F)c1F [Example 42, N-[3-chloro-4-(2,6-diazaspiro[3.3]heptane-2-carbonyl)phenyl]-5-(2,3-difluoro-4-methoxy-phenyl)-1-methyl-imidazole-2-carboxamide trifluoroacetate] | 170 nM
CN(C)C1CN(C(=O)C2CCN(C(=O)c3ccc(NC(=O)c4ncc(-c5ccc(OC(F)F)c(F)c5F)n4C)cc3Cl)CC2)C1 [Example 43, N-[3-chloro-4-[4-[3-(dimethylamino)azetidine-1-carbonyl]piperidine-1-carbonyl]phenyl]-5-[4-(difluoromethoxy)-2,3-difluoro-phenyl]-1-methyl-imidazole-2-carboxamide trifluoioacetate] | 90 nM
Cn1c(-c2ccc(OC(F)F)c(F)c2F)cnc1C(=O)Nc1ccc(C(=O)N2CCC(C(=O)N[C@H]3CNC[C@H]3F)CC2)c(Cl)c1 [Example 44, 1-[2-chloro-4-[[5-[4-(difluoromethoxy)-2,3-difluoro-phenyl]-1-methyl-imidazole-2-carbonyl]amino]benzoyl]-N-[(3S,4R)-4-fluoropyrrolidin-3-yl]piperidine-4-carboxamide trifluoroacetate] | 30 nM
Cn1c(-c2ccc(OC(F)F)c(F)c2F)cnc1C(=O)Nc1ccc(C(=O)N2CCC(C(=O)N3CC[C@@H](N)C3)CC2)c(Cl)c1 [Example 45, N-[4-[4-[(3R)-3-aminopyrrolidine-1-carbonyl]piperidine-1-carbonyl]-3-chloro-phenyl]-5-[4-(difluoromethoxy)-2,3-difluoro-phenyl]-1-methyl-imidazole-2-carboxamide trifluoroacetate] | 80 nM
Cn1c(-c2ccc(OC(F)F)c(F)c2F)cnc1C(=O)Nc1ccc(C(=O)N2CCC(C(=O)N3CC[C@H](N)C3)CC2)c(Cl)c1 [Example 46, N-[4-[4-[(3S)-3-aminopyrrolidine-1-carbonyl]piperidine-1-carbonyl]-3-chloro-phenyl]-5-[4-(difluoromethoxy)-2,3-difluoro-phenyl]-1-methyl-imidazole-2-carboxamide trifluoroacetate] | 70 nM
Cn1c(-c2ccc(OC(F)F)c(F)c2F)cnc1C(=O)Nc1ccc(C(=O)N2CCC(C(=O)NC[C@@H]3CCNC3)CC2)c(Cl)c1 [Example 47, 1-[2-chloro-4-[[5-[4-(difluoromethoxy)-2,3-difluoro-phenyl]-1-methyl-imidazole-2-carbonyl]amino]benzoyl]-N-[[(3R)-pyrrolidin-3-yl]methyl]piperidine-4-carboxamide trifluoroacetate] | 40 nM
Cn1c(-c2ccc(OC(F)F)c(F)c2F)cnc1C(=O)Nc1ccc(C(=O)N2CCC(C(=O)NC[C@H]3CCNC3)CC2)c(Cl)c1 [Example 48, 1-[2-chloro-4-[[5-[4-(difluoromethoxy)-2,3-difluoro-phenyl]-1-methyl-imidazole-2-carbonyl]amino]benzoyl]-N-[[(3S)-pyrrolidin-3-yl]methyl]piperidine-4-carboxamide trifluoroacetate] | 40 nM
Cn1c(-c2ccc(OC(F)F)c(F)c2F)cnc1C(=O)Nc1ccc(C(=O)N2CCC(C(=O)N3CCC(C(N)=O)C3)CC2)c(Cl)c1 (stereo not shown) [Example 49, N-[4-[4-(3-carbamoylpyrrolidine-1-carbonyl)piperidine-1-carbonyl]-3-chloro-phenyl]-5-[4-(difluoromethoxy)-2,3-difluoro-phenyl]-1-methyl-imidazole-2-carboxamide trifluoroacetate] | 150 nM
Cn1c(-c2ccc(OC(F)F)c(F)c2F)cnc1C(=O)Nc1ccc(C(=O)N2CCC(C(=O)N[C@H]3CNC[C@@H]3O)CC2)c(Cl)c1 [Example 50, 1-[2-chloro-4-[[5-[4-(difluoromethoxy)-2,3-difluoro-phenyl]-1-methyl-imidazole-2-carbonyl]amino]benzoyl]-N-[(3S,4S)-4-hydroxypyrrolidin-3-yl]piperidine-4-carboxamide trifluoroacetate] | 50 nM
Cn1c(-c2ccc(OCF)c(F)c2F)cnc1C(=O)Nc1ccc(C(=O)N2CCC(C(=O)N[C@H]3CNC[C@H]3F)CC2)c(Cl)c1 [Example 51, 1-[2-chloro-4-[[5-[2,3-difluoro-4-(fluoromethoxy)phenyl]-1-methyl-imidazole-2-carbonyl]amino]benzoyl]-N-[(3S,4R)-4-fluoropyrrolidin-3-yl]piperidine-4-carboxamide trifluoroacetate] | 30 nM
CN1CCC(NNC(=O)C2CCN(C(=O)c3ccc(NC(=O)c4ncc(-c5ccc(OCF)c(F)c5F)n4C)cc3Cl)CC2)CC1 [Example 52, N-[3-chloro-4-[4-[[(1-methyl-4-piperidyl)amino]carbamoyl]piperidine-1-carbonyl]phenyl]-5-[2,3-difluoro-4-(fluoromethoxy)phenyl]-1-methyl-imidazole-2-carboxamide trifluoroacetate] | 130 nM
Cn1c(-c2ccc(OCF)c(F)c2Cl)cnc1C(=O)Nc1ccc(C(=O)N2CCC(C(=O)N[C@@H]3CNC[C@H]3O)CC2)c(Cl)c1 [Example 53, 1-[2-chloro-4-[[5-[2-chloro-3-fluoro-4-(fluoromethoxy)phenyl]-1-methyl-imidazole-2-carbonyl]amino]benzoyl]-N-[(3R,4R)-4-hydroxypyrrolidin-3-yl]piperidine-4-carboxamide formate] | 50 nM
Cn1c(-c2ccc(OCF)c(F)c2F)cnc1C(=O)Nc1ccc(C(=O)N2CCC(C(=O)NC[C@@H]3CCNC3)CC2)c(Cl)c1 [Example 54, 1-[2-chloro-4-[[5-[2,3-difluoro-4-(fluoromethoxy)phenyl]-1-methyl-imidazole-2-carbonyl]amino]benzoyl]-N-[[(3R)-pyrrolidin-3-yl]methyl]piperidine-4-carboxamide formate] | 40 nM
COc1ccc(-c2cnc(C(=O)Nc3ccc(C(=O)N4CCC(C(=O)NC[C@@H]5CCNC5)CC4)c(Cl)c3)n2C)c(F)c1F [Example 55, 1-[2-chloro-4-[[5-(2,3-difluoro-4-methoxy-phenyl)-1-methyl-imidazole-2-carbonyl]amino]benzoyl]-N-[[(3R)-pyrrolidin-3-yl]methyl]piperidine-4-carboxamide formate] | 50 nM
COc1ccc(-c2cnc(C(=O)Nc3ccc(C(=O)N4CCC(C(=O)NC[C@H]5CCNC5)CC4)c(Cl)c3)n2C)c(F)c1F [Example 56, 1-[2-chloro-4-[[5-(2,3-difluoro-4-methoxy-phenyl)-1-methyl-imidazole-2-carbonyl]amino]benzoyl]-N-[[(3S)-pyrrolidin-3-yl]methyl]piperidine-4-carboxamide formate] | 70 nM
COc1ccc(-c2cnc(C(=O)Nc3ccc(C(=O)N4CCC(C(=O)NCC5(O)CNC5)CC4)c(Cl)c3)n2C)c(F)c1F [Example 57, 1-[2-chloro-4-[[5-(2,3-difluoro-4-methoxy-phenyl)-1-methyl-imidazole-2-carbonyl]amino]benzoyl]-N-[(3-hydroxyazetidin-3-yl)methyl]piperidine-4-carboxamide formate] | 60 nM
COc1ccc(-c2cnc(C(=O)Nc3ccc(C(=O)N4CCC(C(=O)N[C@H]5CCNC5)CC4)c(Cl)c3)n2C)c(F)c1F [Example 58, 1-[2-chloro-4-[[5-(2,3-difluoro-4-methoxy-phenyl)-1-methyl-imidazole-2-carbonyl]amino]benzoyl]-N-[(3S)-pyrrolidin-3-yl]piperidine-4-carboxamide formate] | 50 nM
COc1ccc(-c2cnc(C(=O)Nc3ccc(C(=O)N4CCC(C(=O)N[C@H]5[C@@H]6CNC[C@@H]65)CC4)c(Cl)c3)n2C)c(F)c1F [Example 59, N-[(1S,5R)-3-azabicyclo[3.1.0]hexan-6-yl]-1-[2-chloro-4-[[5-(2,3-difluoro-4-methoxy-phenyl)-1-methyl-imidazole-2-carbonyl]amino]benzoyl] piperidine-4-carboxamide formate] | 50 nM
COc1ccc(-c2cnc(C(=O)Nc3ccc(C(=O)N4CCC(C(=O)N[C@@H]5CNC[C@H]5O)CC4)c(Cl)c3)n2C)c(F)c1F [Example 60, 1-[2-chloro-4-[[5-(2,3-difluoro-4-methoxy-phenyl)-1-methyl-imidazole-2-carbonyl]amino]benzoyl]-N-[(3R,4R)-4-hydroxypyrrolidin-3-yl]piperidine-4-carboxamide formate] | 50 nM
Cn1c(-c2ccc(OC(F)F)c(F)c2F)cnc1C(=O)Nc1ccc(C(=O)N2CCC(C(=O)N[C@H]3[C@@H]4CNC[C@@H]43)CC2)c(Cl)c1 [Example 61, N-[(1S,5R)-3-azabicyclo[3.1.0]hexan-6-yl]-1-[2-chloro-4-[[5-[4-(difluoromethoxy)-2,3-difluoro-phenyl]-1-methyl-imidazole-2-carbonyl]amino]benzoyl] piperidine-4-carboxamide formate] | 60 nM
